We go through 19 compounds from patent US20230257372A1 (CHONG KUN DANG PHARMACEUTICAL CORP., priority 2020, published 2023).

The target of assay [1] is T1, human recombinant HDAC1 (Homo sapiens, UniProt Q13547).
T1 construct: purchased Enzo Life Science, Inc. BML-SE456
In words: HDAC1 enzyme activity inhibition (HDAC Fluorimetric Drug Discovery Kit). The assay is classed as biochemical. Particulars: human recombinant HDAC1; IC50 calculated with GraphPad Prism; read-out: HDAC1. The procedure, abridged:
(§1)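 Each isoform is run in the same format: compound dilutions (5-fold steps), 10 μM substrate, […] enzyme, one hour at 30° C, then 30 minutes with developer before fluorescence readout.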

For assay [2], the target named is T2, human recombinant HDAC6 (Homo sapiens, UniProt Q9UBN7).
T2 construct: purchased Calbiochem Inc. 382180
T2 sequence (Q9UBN7 1-1215): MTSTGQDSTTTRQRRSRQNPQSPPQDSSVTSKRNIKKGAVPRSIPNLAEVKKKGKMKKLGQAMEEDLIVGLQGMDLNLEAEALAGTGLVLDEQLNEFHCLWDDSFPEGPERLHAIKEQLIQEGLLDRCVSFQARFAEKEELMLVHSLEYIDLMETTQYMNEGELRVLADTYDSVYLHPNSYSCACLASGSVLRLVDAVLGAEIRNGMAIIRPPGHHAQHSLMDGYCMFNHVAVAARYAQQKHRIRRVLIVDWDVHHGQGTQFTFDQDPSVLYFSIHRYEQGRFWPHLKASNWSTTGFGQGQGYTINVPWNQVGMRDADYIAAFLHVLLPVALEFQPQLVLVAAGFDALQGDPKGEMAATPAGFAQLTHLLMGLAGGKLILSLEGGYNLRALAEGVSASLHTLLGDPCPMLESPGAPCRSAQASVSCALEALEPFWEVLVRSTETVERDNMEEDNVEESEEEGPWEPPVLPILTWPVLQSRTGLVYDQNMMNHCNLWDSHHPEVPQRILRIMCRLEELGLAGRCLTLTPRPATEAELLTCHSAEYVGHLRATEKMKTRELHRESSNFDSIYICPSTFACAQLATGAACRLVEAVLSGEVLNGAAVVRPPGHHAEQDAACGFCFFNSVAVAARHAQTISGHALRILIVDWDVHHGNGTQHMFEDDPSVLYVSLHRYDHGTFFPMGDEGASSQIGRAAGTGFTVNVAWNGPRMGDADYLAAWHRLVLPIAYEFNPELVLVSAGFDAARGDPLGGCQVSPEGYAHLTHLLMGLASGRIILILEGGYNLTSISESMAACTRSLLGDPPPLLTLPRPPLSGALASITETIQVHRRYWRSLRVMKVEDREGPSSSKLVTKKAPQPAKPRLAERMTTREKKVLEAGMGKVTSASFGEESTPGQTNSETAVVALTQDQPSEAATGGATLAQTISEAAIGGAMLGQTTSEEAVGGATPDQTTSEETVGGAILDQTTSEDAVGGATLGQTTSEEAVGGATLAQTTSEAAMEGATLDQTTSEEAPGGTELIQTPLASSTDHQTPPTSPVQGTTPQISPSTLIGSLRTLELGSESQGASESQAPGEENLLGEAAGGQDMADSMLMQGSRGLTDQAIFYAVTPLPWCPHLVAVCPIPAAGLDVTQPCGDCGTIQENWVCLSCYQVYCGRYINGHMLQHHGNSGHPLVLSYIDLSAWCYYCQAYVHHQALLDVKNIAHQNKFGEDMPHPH
In words: HDAC6 enzyme activity inhibition (HDAC Fluorimetric Drug Discovery Kit). Particulars: for HDAC6 selectivity (fold): HDAC1 IC50 / HDAC6 IC50; for IC50: human recombinant HDAC6, IC50 calculated with GraphPad Prism. The assay is classed as biochemical. In outline: as §1

T1 sequence (Q13547 whole entry): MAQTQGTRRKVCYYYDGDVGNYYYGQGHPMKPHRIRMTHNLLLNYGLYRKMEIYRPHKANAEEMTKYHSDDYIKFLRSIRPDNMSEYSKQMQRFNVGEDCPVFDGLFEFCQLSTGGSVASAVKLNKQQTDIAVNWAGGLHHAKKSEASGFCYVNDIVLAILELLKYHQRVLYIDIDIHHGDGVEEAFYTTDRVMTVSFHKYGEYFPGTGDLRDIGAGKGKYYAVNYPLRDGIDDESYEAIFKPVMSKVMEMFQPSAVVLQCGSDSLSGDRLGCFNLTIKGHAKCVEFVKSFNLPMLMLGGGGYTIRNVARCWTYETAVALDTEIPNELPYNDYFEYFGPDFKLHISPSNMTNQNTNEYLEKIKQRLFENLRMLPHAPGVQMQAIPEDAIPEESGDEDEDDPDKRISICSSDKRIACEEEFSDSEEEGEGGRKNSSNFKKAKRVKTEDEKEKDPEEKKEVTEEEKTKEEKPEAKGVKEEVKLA

As to `OC1(c2cn(Cc3ccc(-c4nnc(C(F)F)o4)cn3)nn2)COC1` [Compound 4276, 3-(1-((5-(5-(difluoromethyl)-1,3,4-oxadiazol-2-yl)pyridin-2-yl)methyl)-1H-1,2,3-triazol-4-yl)oxetan-3-ol], the IC50 in assay [1] was > 50000 nM. Further, in assay [2], the “HDAC6 selectivity (fold)” value came out at 143 fold and the IC50 was 349 nM.
For `OC1(c2cn(Cc3ccc(-c4nnc(C(F)F)o4)cn3)nn2)CCOC1` (stereo not drawn) [Compound 4277, 3-(1-((5-(5-(difluoromethyl)-1,3,4-oxadiazol-2-yl)pyridin-2-yl)methyl)-1H-1,2,3-triazol-4-yl)tetrahydrofuran-3-ol], in that order: > 50000 nM, 212 fold and 235 nM.
For `OC1(c2cn(Cc3ccc(-c4nnc(C(F)F)o4)cc3F)nn2)COC1` [Compound 4278, 3-(1-(4-(5-(difluoromethyl)-1,3,4-oxadiazol-2-yl)-2-fluorobenzyl)-1H-1,2,3-triazol-4-yl)oxetan-3-ol], in that order: > 50000 nM, 160 fold and 311 nM.
For `OC1(c2cn(Cc3ccc(-c4nnc(C(F)F)o4)cc3F)nn2)CCOC1` (stereo not drawn) [Compound 4279, 3-(1-(4-(5-(difluoromethyl)-1,3,4-oxadiazol-2-yl)-2-fluorobenzyl)-1H-1,2,3-triazol-4-yl)tetrahydrofuran-3-ol], in that order: > 50000 nM, 182 fold and 274 nM.
As to `FC(F)c1nnc(-c2ccc(Cn3cc(C4(F)COC4)nn3)nc2)o1` [Compound 4280, 2-(difluoromethyl)-5-(6-((4-(3-fluorooxetan-3-yl)-1H-1,2,3-triazol-1-yl)methyl)pyridin-3-yl)-1,3,4-oxadiazole], the IC50 in assay [1] was > 50000 nM. Further, in assay [2], the “HDAC6 selectivity (fold)” value turned out to be 292 fold and the IC50 was 171 nM.
As for `FC(F)c1nnc(-c2ccc(Cn3cc(C4(F)CCOC4)nn3)nc2)o1` (stereo not drawn) [Compound 4281, 2-(difluoromethyl)-5-(6-((4-(3-fluorotetrahydrofuran-3-yl)-1H-1,2,3-triazol-1-yl)methyl)pyridin-3-yl)-1,3,4-oxadiazole], the IC50 in assay [1] is > 50000 nM. Moreover, in assay [2], the “HDAC6 selectivity (fold)” value was 412 fold and the IC50 was 121 nM.
`Fc1cc(-c2nnc(C(F)F)o2)ccc1Cn1cc(C2(F)COC2)nn1` [Compound 4282, 2-(difluoromethyl)-5-(3-fluoro-4-((4-(3-fluorooxetan-3-yl)-1H-1,2,3-triazol-1-yl)methyl)phenyl)-1,3,4-oxadiazole]: the IC50 in assay [1] is > 50000 nM. In assay [2], the “HDAC6 selectivity (fold)” value came to 209 fold and the IC50 was 238 nM.
Regarding `Fc1cc(-c2nnc(C(F)F)o2)ccc1Cn1cc(C2(F)CCOC2)nn1` (stereo not drawn) [Compound 4283, 2-(difluoromethyl)-5-(3-fluoro-4-((4-(3-fluorotetrahydrofuran-3-yl)-1H-1,2,3-triazol-1-yl)methyl)phenyl)-1,3,4-oxadiazole], the IC50 was > 50000 nM in assay [1] and 246 nM in assay [2]. In addition, in assay [2], the “HDAC6 selectivity (fold)” value was found to be 203 fold.
In the case of `FC(F)c1nnc(-c2ccc(Cn3cc(-c4ccc(-n5ccnc5)cc4)nn3)nc2)o1` [Compound 4284, 2-(6-((4-(4-(1H-imidazol-1-yl)phenyl)-1H-1,2,3-triazol-1-yl)methyl)pyridin-3-yl)-5-(difluoromethyl)-1,3,4-oxadiazole], the IC50 in assay [1] is > 50000 nM. Further, in assay [2], the “HDAC6 selectivity (fold)” value is listed as 1915 fold and the IC50 was 26.1 nM.
`FC(F)c1nnc(-c2ccc(Cn3cc(-c4ccc(-n5cncn5)cc4)nn3)nc2)o1` [Compound 4285, 2-(6-((4-(4-(1H-1,2,4-triazol-1-yl)phenyl)-1H-1,2,3-triazol-1-yl)methyl)pyridin-3-yl)-5-(difluoromethyl)-1,3,4-oxadiazole]: the IC50 in assay [1] is > 50000 nM; in assay [2] it was 31.7 nM. In addition, in assay [2], the “HDAC6 selectivity (fold)” value came out at 1577 fold.
On to `FC(F)c1nnc(-c2ccc(Cn3cc(-c4ccccc4-n4cncn4)nn3)nc2)o1` [Compound 4286, 2-(6-((4-(2-(1H-1,2,4-triazol-1-yl)phenyl)-1H-1,2,3-triazol-1-yl)methyl)pyridin-3-yl)-5-(difluoromethyl)-1,3,4-oxadiazole], for which the values for the IC50 in assay [1] and in assay [2] were > 50000 nM and 324 nM, respectively. For the same compound, the “HDAC6 selectivity (fold)” value in assay [2] was determined as 154 fold.
For `Cc1cc2ccc(-c3cn(Cc4ccc(-c5nnc(C(F)F)o5)cc4)nn3)cc2[nH]1` [Compound 4288], in that order: > 50000 nM, 103 nM and 486 fold.
As to `CN1CCC(c2cccc(-c3cn(Cc4ccc(-c5nnc(C(F)F)o5)cc4F)nn3)c2)CC1` [Compound 4290, 2-(difluoromethyl)-5-(3-fluoro-4-((4-(3-(1-methylpiperidin-4-yl)phenyl)-1H-1,2,3-triazol-1-yl)methyl)phenyl)-1,3,4-oxadiazole], the IC50 in assay [1] was > 50000 nM. In assay [2], the “HDAC6 selectivity (fold)” value is 909 fold and the IC50 is 55 nM.
In the case of `CCN1CCC(c2cccc(-c3cn(Cc4ccc(-c5nnc(C(F)F)o5)cc4F)nn3)c2)CC1` [Compound 4291, 2-(difluoromethyl)-5-(4-((4-(3-(1-ethylpiperidin-4-yl)phenyl)-1H-1,2,3-triazol-1-yl)methyl)-3-fluorophenyl)-1,3,4-oxadiazole], the values for the IC50 in assay [1] and in assay [2] were > 50000 nM and 42.7 nM, respectively. Also, in assay [2], the “HDAC6 selectivity (fold)” value is reported as 1170 fold.
For `CC(C)N1CCC(c2cccc(-c3cn(Cc4ccc(-c5nnc(C(F)F)o5)cc4F)nn3)c2)CC1` [Compound 4292, 2-(difluoromethyl)-5-(3-fluoro-4-((4-(3-(1-isopropylpiperidin-4-yl)phenyl)-1H-1,2,3-triazol-1-yl)methyl)phenyl)-1,3,4-oxadiazole] the same measures were > 50000 nM, 51.7 nM and 967 fold.
Regarding `Fc1cc(-c2nnc(C(F)F)o2)ccc1Cn1cc(-c2cccc(C3CCN(C4COC4)CC3)c2)nn1` [Compound 4293, 2-(difluoromethyl)-5-(3-fluoro-4-((4-(3-(1-(oxetan-3-yl)piperidin-4-yl)phenyl)-1H-1,2,3-triazol-1-yl)methyl)phenyl)-1,3,4-oxadiazole], the IC50 in assay [1] was > 50000 nM. For the same compound, in assay [2], the “HDAC6 selectivity (fold)” value is listed as 618 fold and the IC50 is 80.9 nM.
For `CN1CC(N2CCC(c3cccc(-c4cn(Cc5ccc(-c6nnc(C(F)F)o6)cc5F)nn4)c3)CC2)C1` [Compound 4294, 2-(difluoromethyl)-5-(3-fluoro-4-((4-(3-(1-(1-methylazetidin-3-yl)piperidin-4-yl)phenyl)-1H-1,2,3-triazol-1-yl)methyl)phenyl)-1,3,4-oxadiazole], the IC50 in assay [1] was > 50000 nM. For the same compound, in assay [2], the “HDAC6 selectivity (fold)” value is recorded as 791 fold and the IC50 is 63.2 nM.
`CCN1CC(N2CCC(c3cccc(-c4cn(Cc5ccc(-c6nnc(C(F)F)o6)cc5F)nn4)c3)CC2)C1` [Compound 4295, 2-(difluoromethyl)-5-(4-((4-(3-(1-(1-ethylazetidin-3-yl)piperidin-4-yl)phenyl)-1H-1,2,3-triazol-1-yl)methyl)-3-fluorophenyl)-1,3,4-oxadiazole]: in assay [1], the IC50 was > 50000 nM. Moreover, in assay [2], the “HDAC6 selectivity (fold)” value was 1106 fold and the IC50 is 45.2 nM.
Regarding `Fc1cc(-c2nnc(C(F)F)o2)ccc1Cn1cc(-c2cccc(N3C[C@@H]4C[C@H]3CN4)c2)nn1` [Compound 4316, 2-(4-((4-(3-((1S,4S)-2,5-diazabicyclo[2.2.1]heptan-2-yl)phenyl)-1H-1,2,3-triazol-1-yl)methyl)-3-fluorophenyl)-5-(difluoromethyl)-1,3,4-oxadiazole], in assay [1], the IC50 was > 50000 nM. Also, in assay [2], the “HDAC6 selectivity (fold)” value turned out to be 206 fold and the IC50 was 242 nM.
